The values that follow come from US8796466B2, “Hepatitis C virus inhibitors” (Bristol-Myers Squibb Company, priority 2009, dated 2014).

The test system of one experiment is HCV 1b genotype. The experiment is described as follows: HCV Replicon assay (HCV 1b genotype). It counts as cell-based, Hepatitis C virus. The note with it: HCV 1b genotype replicon; class symbol; read-out: Range (EC50 values against HCV 1b). The method, then: An HCV Replicon assay was utilized in the present disclosure, and was prepared, conducted and validated as described in commonly owned PCT/US2006/022197 and in O'Boyle et. al. Antimicrob Agents Chemother. 2005 April; 49(4):1346-53. Assay methods incorporating luciferase reporters have also been used as described (Apath.com).
HCV-neo replicon cells and replicon cells containing mutations in the NS5A region were used to test the currently described family of compounds. The compounds were determined to have more than 10-fold less inhibitory activity on cells containing mutations than wild-type cells. Thus, the compounds of the present disclosure can be effective in inhibiting the function of the HCV NS5A protein and are understood to be as effective in combinations as previously described in application PCT/US2006/022197 and commonly owned WO/04014852. Further, the compounds of the present disclosure can be effective against the HCV 1b genotype. It should also be understood that the compounds of the present disclosure can inhibit multiple genotypes of HCV. […] In one embodiment, compounds of the present disclosure are inhibitory versus 1a, 1b, 2a, 2b, 3a, 4a, and 5a genotypes.
On the technique in general: In antiviral work, replicon cells carry a viral genome segment that copies itself.
For orientation: EC50 means the concentration giving half of the maximal effect. As to `COC(=O)N[C@H](C(=O)N1C[C@@H](C)C[C@H]1c1nc(Cl)c(-c2ccc(C#Cc3ccc(-c4[nH]c([C@@H]5C[C@H](C)CN5C(=O)[C@@H](NC(=O)OC)C(C)C)nc4Cl)cc3)cc2)[nH]1)C(C)C` [Example M12.5], the EC50 fell in the range of 2 to 99 pM.

The experiment is the same for the next values; noted with them: Hepatitis C virus; HCV 1b genotype replicon; Effective 50% inhibitory concentration; read-out: 1b EC50.
Take `COC(=O)N[C@H](C(=O)N1C[C@@H](C)C[C@H]1c1ncc(-c2ccc(C#Cc3ccc(-c4cnc([C@@H]5C[C@H](C)CN5C(=O)[C@@H](NC(=O)OC)C5CCOCC5)[nH]4)cc3)cc2)[nH]1)C1CCOCC1` [Example M12.3, dimethyl (1,2-ethynediylbis(4,1-phenylene-1H-imidazole-4,2-diyl((2S,4S)-4-methyl-2,1-pyrrolidinediyl)((1S)-2-oxo-1-(tetrahydro-2H-pyran-4-yl)-2,1-ethanediyl)))biscarbamate]: the EC50 is 14 pM.

The experiment is the same for the next values; noted with them: Hepatitis C virus; HCV 1b genotype replicon; class symbol; read-out: Range (EC50 values against HCV 1b).
On to `COC(=O)N[C@H](C(=O)N1[C@@H]2C[C@@H]2C[C@H]1c1nc(Cl)c(-c2ccc(C#Cc3ccc(-c4[nH]c([C@@H]5C[C@H]6C[C@H]6N5C(=O)[C@@H](NC(=O)OC)C(C)C)nc4Cl)cc3)cc2)[nH]1)C(C)C` [Example M9, methyl ((1S)-1-(((1R,3S,5R)-3-(4-chloro-5-(4-((4-(4-chloro-2-((1R,3S,5R)-2-((2S)-2-((methoxycarbonyl)amino)-3-methylbutanoyl)-2-azabicyclo[3.1.0]hex-3-yl)-1H-imidazol-5-yl)phenyl)ethynyl)phenyl)-1H-imidazol-2-yl)-2-azabicyclo[3.1.0]hex-2-yl)carbonyl)-2-methylpropyl)carbamate], for which the EC50 was 2 to 99 pM.
Turning to `COC(=O)N[C@H](C(=O)N1[C@@H]2C[C@@H]2C[C@H]1c1nc(-c2ccc(C#Cc3ccc(-c4[nH]c([C@@H]5C[C@H]6C[C@H]6N5C(=O)[C@@H](NC(=O)OC)C5CCOCC5)nc4Cl)cc3)cc2)c[nH]1)C1CCOCC1` [Example M9.1, methyl ((1S)-2-((1R,3S,5R)-3-(4-(4-((4-(4-chloro-2-((1R,3S,5R)-2-((2S)-2-((methoxycarbonyl)amino)-2-(tetrahydro-2H-pyran-4-yl)acetyl)-2-azabicyclo[3.1.0]hex-3-yl)-1H-imidazol-5-yl)phenyl)ethynyl)phenyl)-1H-imidazol-2-yl)-2-azabicyclo[3.1.0]hex-2-yl)-2-oxo-1-(tetrahydro-2H-pyran-4-yl)ethyl)carbamate], the half-maximal effective concentration (EC50) fell in the range of 2 to 99 pM.
On the same count and under the same terms, under `COC(=O)N[C@H](C(=O)N1[C@@H]2C[C@@H]2C[C@H]1c1nc(Cl)c(-c2ccc(C#Cc3ccc(-c4[nH]c([C@@H]5C[C@H]6C[C@H]6N5C(=O)[C@@H](NC(=O)OC)C5CCOCC5)nc4Cl)cc3)cc2)[nH]1)C1CCOCC1` [Example M9.2, dimethyl (1,2-ethynediylbis(4,1-phenylene(4-chloro-1H-imidazole-5,2-diyl)(1R,3S,5R)-2-azabicyclo[3.1.0]hexane-3,2-diyl((1S)-2-oxo-1-(tetrahydro-2H-pyran-4-yl)-2,1-ethanediyl)))biscarbamate] stands 2 to 99 pM.
The same measure, in the same setting: under `COC(=O)N[C@H](C(=O)N1[C@@H]2C[C@@H]2C[C@H]1c1ncc(-c2ccc([C@H]3C[C@@H]3c3ccc(-c4cnc([C@@H]5C[C@H]6C[C@H]6N5C(=O)[C@@H](NC(=O)OC)C(C)C)[nH]4)cc3)cc2)[nH]1)C(C)C` [Example M9.3] stands 2 to 99 pM; under `COC(=O)N[C@H](C(=O)N1[C@@H]2C[C@@H]2C[C@H]1c1ncc(-c2ccc([C@H]3C[C@@H]3c3ccc(-c4cnc([C@@H]5C[C@H]6C[C@H]6N5C(=O)[C@@H](NC(=O)OC)C5CCOCC5)[nH]4)cc3)cc2)[nH]1)C1CCOCC1` [Example M9.4, dimethyl ((1S,2S)-1,2-cyclopropanediylbis(4,1-phenylene-1H-imidazole-4,2-diyl(1R,3S,5R)-2-azabicyclo[3.1.0]hexane-3,2-diyl((1S)-2-oxo-1-(tetrahydro-2H-pyran-4-yl)-2,1-ethanediyl)))biscarbamate], 2 to 99 pM.
Same read-out and setting: under `COC(=O)N[C@H](C(=O)N1[C@@H]2C[C@@H]2C[C@H]1c1nc(-c2ccc([C@@H]3C[C@H]3c3ccc(-c4c[nH]c([C@@H]5C[C@H]6C[C@H]6N5C(=O)[C@@H](NC(=O)OC)C5CCOCC5)n4)cc3)cc2)c[nH]1)C1CCOCC1` [Example M9.6, dimethyl ((1R,2R)-1,2-cyclopropanediylbis(4,1-phenylene-1H-imidazole-4,2-diyl(1R,3S,5R)-2-azabicyclo[3.1.0]hexane-3,2-diyl((1S)-2-oxo-1-(tetrahydro-2H-pyran-4-yl)-2,1-ethanediyl)))biscarbamate] stands 2 to 99 pM.
Regarding `COC(=O)N[C@H](C(=O)N1C[C@@H](C)C[C@H]1c1ncc(-c2ccc([C@H]3C[C@@H]3c3ccc(-c4cnc([C@@H]5C[C@H](C)CN5C(=O)[C@@H](NC(=O)OC)C(C)C)[nH]4)cc3)cc2)[nH]1)C(C)C` [Example M9.7, methyl ((1S)-1-(((2S,4S)-2-(4-(4-((1S,2S)-2-(4-(2-((2S,4S)-1-((2S)-2-((methoxycarbonyl)amino)-3-methylbutanoyl)-4-methyl-2-pyrrolidinyl)-1H-imidazol-4-yl)phenyl)cyclopropyl)phenyl)-1H-imidazol-2-yl)-4-methyl-1-pyrrolidinyl)carbonyl)-2-methylpropyl)carbamate], the EC50 is 2 to 99 pM.
For the compound `COC(=O)N[C@H](C(=O)N1C[C@@H](C)C[C@H]1c1ncc(-c2ccc([C@H]3C[C@@H]3c3ccc(-c4cnc([C@@H]5C[C@H](C)CN5C(=O)[C@@H](NC(=O)OC)C5CCOCC5)[nH]4)cc3)cc2)[nH]1)C1CCOCC1` [Example M9.8, dimethyl ((1S,2S)-1,2-cyclopropanediylbis(4,1-phenylene-1H-imidazole-4,2-diyl((2S,4S)-4-methyl-2,1-pyrrolidinediyl)((1S)-2-oxo-1-(tetrahydro-2H-pyran-4-yl)-2,1-ethanediyl)))biscarbamate], the EC50 was 2 to 99 pM.
On the same count and under the same terms, under `COC(=O)N[C@H](C(=O)N1[C@@H](C)CC[C@H]1c1ncc(-c2ccc(C#Cc3ccc(-c4cnc([C@@H]5CC[C@H](C)N5C(=O)[C@@H](NC(=O)OC)C(C)C)[nH]4)cc3)cc2)[nH]1)C(C)C` [Example M10, methyl ((1S)-1-(((2S,5S)-2-(4-(4-((4-(2-((2S,5S)-1-((2S)-2-((methoxycarbonyl)amino)-3-methylbutanoyl)-5-methyl-2-pyrrolidinyl)-1H-imidazol-4-yl)phenyl)ethynyl)phenyl)-1H-imidazol-2-yl)-5-methyl-1-pyrrolidinyl)carbonyl)-2-methylpropyl)carbamate] stands 2 to 99 pM; under `CC[C@H](NC(=O)OC)C(=O)N1[C@@H](C)CC[C@H]1c1nc(-c2ccc(C#Cc3ccc(-c4c[nH]c([C@@H]5CC[C@H](C)N5C(=O)[C@H](CC)NC(=O)OC)n4)cc3)cc2)c[nH]1` [Example M11, dimethyl (1,2-ethynediylbis(4,1-phenylene-1H-imidazole-4,2-diyl((2S,5S)-5-methyl-2,1-pyrrolidinediyl)((2S)-1-oxo-1,2-butanediyl)))biscarbamate], 2 to 99 pM.
Same read-out and setting: under `COC(=O)N[C@H](C(=O)N1[C@@H](C)CC[C@H]1c1nc(-c2ccc(C#Cc3ccc(-c4c[nH]c([C@@H]5CC[C@H](C)N5C(=O)[C@@H](NC(=O)OC)C5CCOCC5)n4)cc3)cc2)c[nH]1)C1CCOCC1` [Example M12, dimethyl (1,2-ethynediylbis(4,1-phenylene-1H-imidazole-4,2-diyl((2S,5S)-5-methyl-2,1-pyrrolidinediyl)((1S)-2-oxo-1-(tetrahydro-2H-pyran-4-yl)-2,1-ethanediyl)))biscarbamate] stands 2 to 99 pM; under `COC(=O)N[C@H](C(=O)N1[C@@H](C)CC[C@H]1c1ncc(-c2ccc(C#Cc3ccc(-c4cnc([C@@H]5CC[C@H](C)N5C(=O)[C@@H](NC(=O)OC)C5CCOCC5)[nH]4)cc3)cc2)[nH]1)C(C)C` [Example M12.1, methyl ((1S)-1-(((2S,5S)-2-(4-(4-((4-(2-((2S,5S)-1-((2S)-2-((methoxycarbonyl)amino)-2-(tetrahydro-2H-pyran-4-yl)acetyl)-5-methyl-2-pyrrolidinyl)-1H-imidazol-4-yl)phenyl)ethynyl)phenyl)-1H-imidazol-2-yl)-5-methyl-1-pyrrolidinyl)carbonyl)-2-methylpropyl)carbamate], 2 to 99 pM; under `COC(=O)N[C@H](C(=O)N1C[C@@H](C)C[C@H]1c1ncc(-c2ccc(C#Cc3ccc(-c4cnc([C@@H]5C[C@H](C)CN5C(=O)[C@@H](NC(=O)OC)C(C)C)[nH]4)cc3)cc2)[nH]1)C(C)C` [Example M12.2, methyl ((1S)-1-(((2S,4S)-2-(4-(4-((4-(2-((2S,4S)-1-((2S)-2-((methoxycarbonyl)amino)-3-methylbutanoyl)-4-methyl-2-pyrrolidinyl)-1H-imidazol-4-yl)phenyl)ethynyl)phenyl)-1H-imidazol-2-yl)-4-methyl-1-pyrrolidinyl)carbonyl)-2-methylpropyl)carbamate], 2 to 99 pM.
For the compound `COC(=O)N[C@H](C(=O)N1C[C@@H](C)C[C@H]1c1ncc(-c2ccc(C#Cc3ccc(-c4cnc([C@@H]5C[C@H](C)CN5C(=O)[C@@H](NC(=O)OC)C5CCOCC5)[nH]4)cc3)cc2)[nH]1)C1CCOCC1` [Example M12.3, dimethyl (1,2-ethynediylbis(4,1-phenylene-1H-imidazole-4,2-diyl((2S,4S)-4-methyl-2,1-pyrrolidinediyl)((1S)-2-oxo-1-(tetrahydro-2H-pyran-4-yl)-2,1-ethanediyl)))biscarbamate], the EC50 is 2 to 99 pM.
Turning to `COC(=O)N[C@H](C(=O)N1C[C@@H](C)C[C@H]1c1nc(-c2ccc(C#Cc3ccc(-c4[nH]c([C@@H]5C[C@H](C)CN5C(=O)[C@@H](NC(=O)OC)C(C)C)nc4Cl)cc3)cc2)c[nH]1)C(C)C` [Example M12.4, methyl ((1S)-1-(((2S,4S)-2-(4-(4-((4-(4-chloro-2-((2S,4S)-1-((2S)-2-((methoxycarbonyl)amino)-3-methylbutanoyl)-4-methyl-2-pyrrolidinyl)-1H-imidazol-5-yl)phenyl)ethynyl)phenyl)-1H-imidazol-2-yl)-4-methyl-1-pyrrolidinyl)carbonyl)-2-methylpropyl)carbamate], the EC50 was 2 to 99 pM.
